From patent publication US5079152A, “Antibody combining sites that exhibit stereoselective synthase activity, and methods using the same” (Scripps Clinic and Research Foundation, priority 1987, dated 1992) come the findings set out here.

This assay has as its system monoclonal antibody 24B11 (receptor lactone synthase secreted by hybridoma 24B11, ATCC HB9488). The assay can be described thus: Kinetics of lactone-forming cyclization catalyzed by monoclonal receptor lactone synthase 24B11 (phenol release at 271 nm, Lineweaver-Burk). The class given is biochemical, mouse.

Read-outs that look alike come from different tables or passages of the source.

Consider `CC(=O)NCC(O)CCCC(=O)Oc1ccccc1` (racemic) [phenyl 6-acetamido-5-hydroxyhexanoate], for which the kcat / kuncat (catalyzed versus uncatalyzed first order cyclization rate constant) is given as 167. This compound also registered a rate acceleration (presence versus absence of the catalytic lactone synthase molecule) of 167 fold. Further, the Km (racemic substrate ligand 20-100 uM, receptor 2 uM, 25 mM phosphate buffer pH 7.0, 25 degrees C, read-out: Km) stood at 76 µM. In addition, the kcat (receptor 2 uM (IgG, 150,000 daltons), pH 7.0, 25 degrees C) is 0.50 L/min. In addition, for the setting “receptor 2 uM, substrate 20-100 uM, pH 7.0, 25 degrees C”, the Vmax was 0.99 µM/min.
For the compound `CC(=O)NCC(O)CCCC(=O)Oc1ccccc1` (single isomer, unassigned) [reactive enantiomer of the substrate ligand], the Km (in the absence of binding by the unreactive enantiomer, read-out: Km for the reactive enantiomer of the substrate ligand) is ~38 µM.

A word on the Km: it is the substrate concentration at which the rate is half of its maximum. The term Vmax denotes the top rate of the reaction or transport when substrate is in excess.
